Laboratory results as given in patent US9113629B2, “4-amino-6-(4-substituted-phenyl)-picolinates and 6-amino-2-(4-substituted-phenyl)-pyrimidine-4-carboxylates and their use as herbicides” (DOW AGROSCIENCES LLC, priority 2013, dated 2015).
Where two headings read alike, the source gives them in different places.

Experiments:
[1] = system: Key Broadleaf Weed and Crop Species; assay: Post-emergent Test II herbicidal activity (Table 5); assay type: in vivo; conditions: post-emergence, 336 h, 14 days after application; for pest or weed control at 70 g/ha: application rate 70 g ai/ha; for pest or weed control at 140 g/ha: application rate 140 g ai/ha
In short: (§1)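 Plants grown in Metro-Mix 360 (pH 6.0–6.8) in a greenhouse (~15 h photoperiod, 23–29 °C day) to first or second true leaf stage, then sprayed with compound in acetone/DMSO/aqueous crop-oil-surfactant carrier at 187 L/ha by track sprayer. Injury visually scored 0–100% versus untreated plants after 14 d.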

[2] = system: Key Grass and Sedge Weeds as well as Grass Crops; assay: Post-emergent Test II herbicidal activity (Table 6); assay type: in vivo; conditions: post-emergence, 336 h; for pest or weed control at 70 g/ha: 70 g ai/ha; for pest or weed control at 140 g/ha: 140 g ai/ha
In short: as §1

[3] = ABUTH: velvetleaf (Abutilon theophrasti), read-out: Visual Growth Reduction (%) 14 Days After Application, ABUTH
[4] = AMARE: redroot pigweed (Amaranthus retroflexus), read-out: Visual Growth Reduction (%) 14 Days After Application, AMARE
[5] = BRSNN: oilseed-rape, canola (Brassica napus), read-out: Visual Growth Reduction (%) 14 Days After Application, BRSNN
[6] = CHEAL: lambsquarters (Chenopodium album), read-out: Visual Growth Reduction (%) 14 Days After Application, CHEAL
[7] = EPHHL: wild poinsettia (Euphorbia heterophylla), read-out: Visual Growth Reduction (%) 14 Days After Application, EPHHL
[8] = HELAN: sunflower (Helianthus annuus), read-out: Visual Growth Reduction (%) 14 Days After Application, HELAN
[9] = VIOTR: wild pansy (Viola tricolor), read-out: Visual Growth Reduction (%) 14 Days After Application, VIOTR
[10] = CYPES: yellow nutsedge (Cyperus esculentus), read-out: Visual Growth Reduction (%) 14 Days After Application, CYPES
[11] = DIGSA: crabgrass (Digitaria sanguinalis), read-out: Visual Growth Reduction (%) 14 Days After Application, DIGSA
[12] = ECHCG: barnyardgrass (Echinochloa crus-galli), read-out: Visual Growth Reduction (%) 14 Days After Application, ECHCG
[13] = ORYSA: rice (Oryza sativa), crop, read-out: Visual Growth Reduction (%) 14 Days After Application, ORYSA
[14] = SETFA: giant foxtail (Setaria faberi), read-out: Visual Growth Reduction (%) 14 Days After Application, SETFA
[15] = SORVU: grain sorghum (Sorghum vulgare), read-out: Visual Growth Reduction (%) 14 Days After Application, SORVU
[16] = TRZSS (wheat, Triticum aestivum), crop, read-out: Visual Growth Reduction (%) 14 Days After Application, TRZSS
[17] = ZEAMX: maize, corn (Zea mays), crop, read-out: Visual Growth Reduction (%) 14 Days After Application, ZEAMX

melting point: 163 to 165 °C
Compound: COC(=O)c1ccc(-c2nc(C(=O)OC)c(Cl)c(N)c2F)cc1 [Compound 190, methyl 4-amino-3-chloro-5-fluoro-6-(4-(methoxycarbonyl)phenyl)picolinate]
pest or weed control at 70 g/ha [1, 3]: 0 to 29% | pest or weed control at 140 g/ha [1, 3]: 0 to 29% | pest or weed control at 70 g/ha [1, 4]: 0 to 29% | pest or weed control at 140 g/ha [1, 4]: 30 to 44% | pest or weed control at 70 g/ha [1, 5]: 0 to 29% | pest or weed control at 140 g/ha [1, 5]: 0 to 29% | pest or weed control at 70 g/ha [1, 6]: 60 to 74% | pest or weed control at 140 g/ha [1, 6]: 30 to 44% | pest or weed control at 70 g/ha [1, 7]: 0 to 29% | pest or weed control at 140 g/ha [1, 7]: 0 to 29% | pest or weed control at 70 g/ha [1, 8]: 0 to 29% | pest or weed control at 140 g/ha [1, 8]: 0 to 29% | pest or weed control at 70 g/ha [1, 9]: 0 to 29% | pest or weed control at 140 g/ha [1, 9]: 0 to 29% | pest or weed control at 70 g/ha [2, 10]: 0 to 29% | pest or weed control at 140 g/ha [2, 10]: 0 to 29% | pest or weed control at 70 g/ha [2, 11]: 0 to 29% | pest or weed control at 140 g/ha [2, 11]: 0 to 29% | pest or weed control at 70 g/ha [2, 12]: 0 to 29% | pest or weed control at 140 g/ha [2, 12]: 0 to 29% | pest or weed control at 70 g/ha [2, 13]: 0 to 29% | pest or weed control at 140 g/ha [2, 13]: 0 to 29% | pest or weed control at 70 g/ha [2, 14]: 0 to 29% | pest or weed control at 140 g/ha [2, 14]: 0 to 29% | pest or weed control at 70 g/ha [2, 15]: 0 to 29% | pest or weed control at 140 g/ha [2, 15]: 0 to 29% | pest or weed control at 70 g/ha [2, 16]: 0 to 29% | pest or weed control at 140 g/ha [2, 16]: 0 to 29% | pest or weed control at 70 g/ha [2, 17]: 0 to 29% | pest or weed control at 140 g/ha [2, 17]: 0 to 29%
